Biological target: Lysine-specific histone demethylase 1A (Homo sapiens, UniProt O60341)
Experiment: LANCE LSD1/KDM1A Demethylase Assay: 10 μL of 1 nM LSD-1 enzyme (ENZO BML-SE544-0050) in the assay buffer (50 mM Tris, pH 7.5, 0.01% Tween-20, 25 mM NaCl, 5 mM DTT) were preincubated for 1 hour at 25° C. with 0.8 μL compound/DMSO dotted in black 384 well polystyrene plates. Reactions were started by addition of 10 μL of assay buffer containing […] Biotin-labeled Histone H3 peptide substrate: ART-K(Me1)-QTARKSTGGKAPRKQLA-GGK(Biotin) SEQ ID NO:1 (AnaSpec 64355) and incubated for 1 hour at 25° C. Reactions were stopped by addition of 10 μL 1× LANCE Detection Buffer (PerkinElmer CR97-100) supplemented with 1.5 nM Eu-anti-unmodified H3K4 Antibody (PerkinElmer TRF0404), and 225 nM LANCE Ultra Streptavidin (PerkinElmer TRF102) along with 0.9 mM Tranylcypromine-HCl (Millipore 616431). After stopping the reactions plates were incubated for 30 minutes and read on a PHERAstar FS plate reader (BMG Labtech).

SMILES: COC(=O)N(C)c1cc(-c2c(-c3ccc(C#N)cc3)nc(OC[C@@H]3CCCN(C)C3)c3nccn23)ccc1C
- IC50: < 50 nM

— ChEMBL document CHEMBL5725316, “Substituted imidazo[1,2-a]pyrazines as LSD1 inhibitors” (2017)
